The experiment has as its target Serine/threonine-protein kinase 33 (Homo sapiens, UniProt Q9BYT3). The experiment in a line: inhibition of STK33 phosphorylation of MBP – biochemical, luminescence, cell-free, retest, dose response (AID 2821).
Serine/threonine-protein kinase 33, sequence (Q9BYT3 whole entry): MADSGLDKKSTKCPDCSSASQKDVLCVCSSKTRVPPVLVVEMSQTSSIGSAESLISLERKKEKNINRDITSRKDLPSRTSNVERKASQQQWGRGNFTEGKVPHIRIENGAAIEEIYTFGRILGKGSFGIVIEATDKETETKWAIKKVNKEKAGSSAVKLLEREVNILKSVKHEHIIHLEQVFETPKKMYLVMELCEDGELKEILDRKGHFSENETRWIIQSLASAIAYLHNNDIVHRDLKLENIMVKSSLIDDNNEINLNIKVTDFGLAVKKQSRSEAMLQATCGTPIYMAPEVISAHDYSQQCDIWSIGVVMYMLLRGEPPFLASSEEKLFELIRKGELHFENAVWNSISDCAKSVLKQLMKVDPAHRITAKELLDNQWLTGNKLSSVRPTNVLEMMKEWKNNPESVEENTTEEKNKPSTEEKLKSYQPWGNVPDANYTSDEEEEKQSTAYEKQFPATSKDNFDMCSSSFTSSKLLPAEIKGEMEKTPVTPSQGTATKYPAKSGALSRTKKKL
Turning to `O=c1c(O)c(-c2cc(O)c(O)c(O)c2)oc2cc(O)cc(O)c12`, a half-maximal response (EC50) required 18 µM.
On to `COc1c(O)cc2oc(-c3ccc(O)c(O)c3)cc(=O)c2c1O`, for which the EC50 – broadly, the midpoint of the concentration-response curve – amounted to 11 µM.
Under `COC1(OC)N=C(N)C2(C#N)C(c3ccc4c(c3)OCO4)C12C#N` (configuration not stated) stands over 120 µM; under `COc1cc(N=CC2C(=O)Nc3ccccc32)cc(OC)c1OC` (configuration not stated), 4.93 µM.
Compound `COc1ccc(N=CC2C(=O)Nc3ccccc32)cc1OC` (configuration not stated) gave an EC50 of 5.22 µM.
For the compound `Oc1cc(O)cc(/C=C/c2ccc(O)c(O)c2)c1`, the EC50 was found to be 12.8 µM.
Under `COc1cc(C=CC(=O)CC(=O)C=Cc2ccc(O)c(OC)c2)ccc1O` stands 0.71 µM.
`CC(C)n1cnc2c(Nc3cccc(Cl)c3)nc(N(CCO)CCCO)nc21` showed an EC50 of 2.86 µM.
As for `CC(C)n1cnc2c(Nc3cccc(Cl)c3)nc(NCCCO)nc21`, the midpoint of the response, the EC50, lay at 1.84 µM.
In turn, `Nc1c(C(=O)O)ccc2c1C(=O)c1ccccc1C2=O` displayed an EC50 of 22.2 µM.
`COc1cc(C=NNC2=c3ccccc3=NC2=O)ccc1O` returned an EC50 of 9.23 µM.
`COc1ccc(C(=O)NNC(=O)c2ccccn2)cc1`: the EC50 was determined as 21.8 µM.
Compound `COc1ccc(NC(=O)c2cc([N+](=O)[O-])ccc2O)cc1` showed an EC50 of 18.6 µM.
In turn, `CCC(Sc1ccc2nnc(-c3ccc(OC)c(OC)c3)n2n1)C(=O)O` (configuration not stated) returned an EC50 of 13.2 µM.
Turning to `COC(=O)c1ccccc1NC(=O)N1CCN(C/C=C/c2ccccc2)CC1`, the EC50 came to 8.73 µM.
The same measure for `Cc1nn(C)cc1/C=C/C(=O)c1ccc(O)cc1`: 29 µM; for `O=C1c2ccccc2C(=O)C1c1ccccn1`: 5.49 µM.
Take `Cc1ccc(NC(=S)Nc2ccc3cn[nH]c3c2)c(C)c1`: the EC50 was over 120 µM.
Compound `NS(=O)(=O)c1ccc2c(c1)C(N=O)c1cc(S(N)(=O)=O)ccc1-2` registered an EC50 of 4.91 µM.
The same measure for `O=c1c2ccccc2sc2ccc(NCCCN3CCOCC3)cc12`: 16.8 µM; for `CNC(=S)Nc1cccc(-c2cnc3ccccc3n2)c1`: over 120 µM.
As to `Oc1ccc(Nc2nc(-c3ccccc3O)nc3ccccc23)cc1`, the EC50 was found to be 2.43 µM.
With `COc1ccc(C(=O)ON=C(N)c2ccccc2)cc1`, the EC50 was over 120 µM.
`CNC(=O)c1cnc2ccc(S(=O)(=O)Nc3ccccc3F)cc2c1O` displayed an EC50 of over 120 µM.
Compound `Cc1cccc(N2CCN(CCCNC(=O)c3ccc(NC(=O)C4=CSCCO4)cc3)CC2C)c1` (configuration not stated) had an EC50 of 7.97 µM.
Take `O=c1c2ccccc2oc2ccc(NCCCN3CCOCC3)cc12`: the EC50 was 3.82 µM.
In turn, `CN(C)C/C=C/C(=O)Nc1cccc(-c2c[nH]c3ncnc(Oc4ccc(NC(=O)CC(=O)Nc5ccc(F)cc5)cc4F)c23)c1` had an EC50 of 6.32 µM. This EC50 lies about 1.7-fold higher than the previous one.
On to `CCN1C(=O)CC(c2ccccc2)N(C2CCCC2)c2nc(Nc3ccc(C(=O)NC4CCN(C)CC4)cc3OC)ncc21` (configuration not stated), for which a half-maximal effect (EC50) was put at 7.93 µM.
As for `COc1ccc2c(c1)C(=Cc1cnc[nH]1)C(=O)N2`, it took 7.73 µM to reach a half-maximal effect (EC50).
`CN(C)c1cc2c(c(N(C)C)c1)C(=O)c1ccccc1C2=O` [1,3-bis(dimethylamino)-9,10-anthraquinone] yielded an EC50 of 23.8 µM.
As for `Oc1ccc(C=NNC(=S)NN=Cc2ccc(O)cc2)cc1` [1,3-bis[(4-oxo-1-cyclohexa-2,5-dienylidene)methylamino]thiourea], the EC50 worked out at 40.9 µM.
For `COc1cc(C)c2c(c1C=O)Oc1c(c(C)c(O)c3c1C(O)OC3=O)OC2=O` (configuration not stated) [1,4-Dihydroxy-10-methoxy-5,8-dimethyl-3,7-dioxo-1,3-dihydro-7H-benzo[e]furo[3',4':3,4]benzo[b][1,4]dioxepine-11-carbaldehyde], the EC50 is 32 µM.
As for `Nc1ccc(N)c2c(O)c3ccccc3c(O)c12` [1,4-bis(azanyl)-2,3-dihydroanthracene-9,10-dione], the EC50 turned out to be 23.8 µM.
On to `Nc1cc(C(=O)O)c(N)c2c1C(=O)c1ccccc1C2=O` [1,4-bis(azanyl)-9,10-bis(oxidanylidene)anthracene-2-carboxylic acid], for which the EC50 came out at 3.55 µM.
In the case of `S=C(NCc1ccccc1)Nc1ccc2cn[nH]c2c1` [1-(1H-indazol-6-yl)-3-(phenylmethyl)thiourea], the EC50 is over 120 µM.
`CCCn1c2ccc(C(C)N=O)cc2c2cc(C(C)N=O)ccc21` (configuration not stated) [1-[6-(1-hydroxyiminoethyl)-9-propyl-3-carbazolyl]ethanone oxime]: the response was half-maximal at 2.48 µM (EC50).
Compound `Nc1c(O)ccc2c1C(=O)c1ccccc1C2=O` [1-amino-2-hydroxy-9,10-anthraquinone] had a concentration giving a half-maximal response (EC50) of 34.7 µM.
The same measure for `CCCCCCCCCCCCCCCCn1cc[n+](C)c1` [1-cetyl-3-methyl-imidazol-3-ium;bromide]: over 120 µM; for `CCCCCCCCCCCCCCCC[n+]1cccc2ccccc21` [1-cetylquinolin-1-ium;iodide]: over 120 µM; for `CCn1c(C)nc2cc(-c3nc4n(n3)Cc3ccccc3-4)ccc21` [2-(1-ethyl-2-methyl-5-benzimidazolyl)-5H-[1,2,4]triazolo[5,1-a]isoindole]: 11 µM.
In the case of `CCN1C=CC(=C2C(=O)c3ccccc3C2=O)C=C1` [2-(1-ethyl-4-pyridinylidene)indene-1,3-dione], a half-maximal effect (EC50) was put at 14 µM.
Turning to `CCCN1C=CC(=C2C(=O)c3ccccc3C2=O)C=C1` [2-(1-propyl-4-pyridinylidene)indene-1,3-dione], the midpoint of the response, the EC50, lay at 8.93 µM.
The same measure for `O=C1c2ccccc2C(=O)C1c1ccncc1` [2-(1H-pyridin-4-ylidene)indane-1,3-quinone]: 10.3 µM.
Under `COc1ccccc1Nc1oc2cc(=O)ccc-2cc1C(N)=O` [2-(2-methoxyanilino)-7-oxo-1-benzopyran-3-carboxamide] stands 30.9 µM.
As to `O=c1c(O)c(-c2ccc(O)c(O)c2)oc2cc(O)cc(O)c12` [2-(3,4-dihydroxyphenyl)-3,5,7-trihydroxy-chromone;hydrate], the EC50 was determined as 12.4 µM. Compared with the last compound, the EC50 is about 2.5-fold lower.
`COc1cc(C=C2SC(Nc3ccc(Cl)c(C(=O)O)c3)=NC2=O)c(Br)c(Br)c1O` [2-Chloro-5-[5-(2,3-dibromo-4-hydroxy-5-methoxy-benzylidene)-4-oxo-thiazolidin-2-ylideneamino]-benzoic acid] displayed an EC50 of 15.9 µM. This EC50 and that of the compound before are within 1.5-fold of each other.
`CCN(CC)c1ccc(/C=C2\C(=O)c3ccc(C(=O)O)cc3C2=O)cc1` [2-[1-(4-Diethylamino-phenyl)-meth-(E)-ylidene]-1,3-dioxo-indan-5-carboxylic acid] showed a half-maximal effective concentration (EC50) of 5.66 µM.
In turn, `CN1CCCC1CCNc1ccc2sc3ccccc3c(=O)c2c1` (configuration not stated) [2-[2-(1-methyl-2-pyrrolidinyl)ethylamino]-9-thioxanthenone] gave an EC50 of 16.6 µM.
For `O=C(CSc1nc(N2CCCCC2)nc(N2CCCCC2)n1)c1ccccc1` [2-[[4,6-di(piperidin-1-yl)-1,3,5-triazin-2-yl]sulfanyl]-1-phenyl-ethanone], the EC50 is over 120 µM.
As to `N#C/C(=C/C=C/c1ccccc1)C(=O)Nc1ccccc1` [2-cyano-N,5-diphenyl-2,4-pentadienamide], the EC50 was over 120 µM.
Under `c1ccc2c3c([nH]c2c1)-c1n[nH]cc1CC3` [3,4,16-triazatetracyclo[7.7.0.0^{2,6}.0^{10,15}]hexadeca-1(9),2,5,10,12,14-hexaene] stands 61 µM; under `COc1cc2c(ccc3cc(OC)c(OC)c(O)c32)cc1O` [3,6,7-trimethoxyphenanthrene-2,5-diol], 27.4 µM.
`CCOc1ccc(-c2ccc(SC)nn2)cc1` [3-(4-ethoxyphenyl)-6-(methylthio)pyridazine] yielded an EC50 of over 120 µM.
On to `O=C(CCc1ccc(O)cc1)c1c(O)cc(O)cc1O` [3-(4-hydroxyphenyl)-1-(2,4,6-trihydroxyphenyl)propan-1-one], for which the EC50 turned out to be 21.4 µM. This counts as double-digit micromolar.
Turning to `CCSc1nc(N2CCOCC2)c2c(c1C#N)CCCC2` [3-(ethylthio)-1-(4-morpholinyl)-5,6,7,8-tetrahydroisoquinoline-4-carbonitrile], it took 8.86 µM to reach a half-maximal effect (EC50).
Consider `NC(=O)c1sc2nc(-c3ccco3)ccc2c1N` [3-Amino-6-furan-2-yl-thieno[2,3-b]pyridine-2-carboxylic acid amide], for which a half-maximal response (EC50) required 25.5 µM.
For the compound `Cc1cc(C=C2C(=O)c3ccccc3C2=O)c(C)n1-c1cccc(C(=O)O)c1` [3-[3-[[1,3-bis(oxidanylidene)inden-2-ylidene]methyl]-2,5-dimethyl-pyrrol-1-yl]benzoic acid], the EC50 is over 120 µM.
Compound `Cc1ccc(-c2nn(CCC(=O)O)cc2/C=C\C(=O)c2ccc(Br)cc2)cc1` [3-[4-[(Z)-3-(4-bromophenyl)-3-oxoprop-1-enyl]-3-(4-methylphenyl)pyrazol-1-yl]propanoic acid] showed an EC50 of 19.3 µM.
The compound `O=c1c(-c2c(O)cc(O)c3c2O[C@H](c2ccc(O)cc2)CC3)c(-c2ccc(O)cc2)oc2cc(O)cc(O)c12` [3-[(2S)-5,7-dihydroxy-2-(4-hydroxyphenyl)-3,4-dihydro-2H-1-benzopyran-8-yl]-5,7-dihydroxy-2-(4-hydroxyphenyl)-1-benzopyran-4-one] displayed an EC50 of over 120 µM.
`CCc1ncc(C=C2C(=O)Nc3ccccc32)[nH]1` [3-[(Z)-(2-ethyl-1H-imidazol-5-yl)methylidene]-1H-indol-2-one]: the midpoint of the response, the EC50, lay at 5.25 µM.
`Cc1ncc(C=C2C(=O)Nc3ccccc32)[nH]1` [3-[(Z)-(2-methyl-1H-imidazol-4-yl)methylidene]-1H-indol-2-one] gave an EC50 of 3.42 µM.
On to `CCn1c(/C=C/c2ccc([N+](=O)[O-])o2)nc2ccccc2c1=O` [3-ethyl-2-[(E)-2-(5-nitro-2-furanyl)ethenyl]-4-quinazolinone], for which the EC50 was over 120 µM.
The same measure for `N#Cc1c2ccc(O)cc2n2ccccc12` [3-hydroxypyrido[1,2-a]indole-10-carbonitrile]: 4.59 µM; for `Cc1c(C(=O)OCC(=O)N2c3ccccc3CC2C)oc2ccccc12` (configuration not stated) [3-methyl-2-benzofurancarboxylic acid [2-(2-methyl-2,3-dihydroindol-1-yl)-2-oxoethyl] ester]: over 120 µM; for `Fc1ccc(-c2c[nH]cn2)cc1` [4-(4-fluorophenyl)-1H-imidazole]: over 120 µM.
`CCN(CC)c1ccc(Nc2nc(N3CCOCC3)c3ccccc3n2)cc1` [4-N,4-N-diethyl-1-N-(4-morpholin-4-ylquinazolin-2-yl)benzene-1,4-diamine] yielded an EC50 of over 120 µM.
Compound `CC(N=Nc1ccnc2cc(Cl)ccc12)c1ccc(O)cc1` (configuration not stated) [4-[1-[(7-chloro-4-quinolinyl)hydrazo]ethylidene]-1-cyclohexa-2,5-dienone] displayed an EC50 of 22.9 µM. That is a double-digit micromolar value.

(Values after BindingDB's records for doi:10.7270/Q2B27SRF (Broad Institute, 2010).)
